Results published in ChEMBL document CHEMBL1201862, “PubChem BioAssay data set” (2004).
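Cells were grown in 96-well plates and exposed to each compound for 48 hours at five concentrations; endpoints were interpolated linearly between bracketing concentrations, or set to the highest concentration if not reached. The concentration for 50% growth inhibition is given as GI50.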 Calls of active or inactive are those of the source. Cut-off read from the data, not from the text of the source: active = GI50 up to about 1.1 µM and inactive = higher.

Assays:
Assay in all cases: DTP human tumour cell line panel, 48 h
786-0 = system: 786-0
ACHN = system: ACHN
CAKI-1 = system: CAKI-1
EKVX = system: EKVX
HCT-116 = system: HCT-116
HT-29 = system: HT-29
LOX IMVI = system: LOX IMVI
Malme-3M = system: Malme-3M
NCI-H522 = system: NCI-H522
NCI/ADR-RES = system: NCI/ADR-RES
OVCAR-5 = system: OVCAR-5
RPMI-8226 = system: RPMI-8226
RXF 393 = system: RXF 393
SK-MEL-5 = system: SK-MEL-5
SK-OV-3 = system: SK-OV-3
SNB-19 = system: SNB-19
SW-620 = system: SW-620
UO-31 = system: UO-31
SK-MEL-2 = system: SK-MEL-2
A498 = system: A498

Measured: GI50

CC(/C=N/N=C1NCCCN1)=N\N=C1NCCCN1
inactive: 786-0 > 100 µM | ACHN > 100 µM | CAKI-1 > 100 µM | EKVX > 100 µM | HCT-116 > 100 µM | HT-29 > 100 µM | LOX IMVI > 100 µM | Malme-3M > 100 µM | NCI-H522 > 100 µM | NCI/ADR-RES > 100 µM | OVCAR-5 > 100 µM | RPMI-8226 > 100 µM | RXF 393 > 100 µM | SK-MEL-5 > 100 µM | SK-OV-3 > 100 µM | SNB-19 > 100 µM | SW-620 > 100 µM | UO-31 > 100 µM

COc1cc(/C=C(\C#N)c2ccccn2)cc(Br)c1O
inactive: 786-0 68.7 µM | ACHN 97.7 µM | CAKI-1 48.5 µM | EKVX 97.5 µM | HCT-116 > 100 µM | HT-29 40.1 µM | Malme-3M 26.4 µM | NCI-H522 27.5 µM | NCI/ADR-RES 20.9 µM | OVCAR-5 > 100 µM | RPMI-8226 40.9 µM | RXF 393 46.2 µM | SK-MEL-2 32.9 µM | SK-MEL-5 40.1 µM | SK-OV-3 55.1 µM | SNB-19 39 µM | SW-620 18.4 µM | UO-31 58.5 µM

COc1cc(C(=O)N(C(=O)N2CCCCC2)c2ccccc2)cc(OC)c1OC
inactive: 786-0 > 100 µM | A498 > 100 µM | ACHN > 100 µM | CAKI-1 > 100 µM | EKVX > 100 µM | HCT-116 > 100 µM | LOX IMVI > 100 µM | NCI/ADR-RES > 100 µM | OVCAR-5 > 100 µM | RPMI-8226 89.1 µM | SK-MEL-2 > 100 µM | SK-MEL-5 > 100 µM | SK-OV-3 > 100 µM | SNB-19 > 100 µM | SW-620 > 100 µM | UO-31 > 100 µM

CC(=O)Nc1ccc(NCC(=O)Nn2cnc3ccc(S(=O)(=O)Nc4ccc(NC(C)=O)cc4)cc3c2=O)cc1
inactive: 786-0 > 100 µM | ACHN > 100 µM | CAKI-1 > 100 µM | EKVX > 100 µM | HCT-116 > 100 µM | HT-29 > 100 µM | LOX IMVI > 100 µM | Malme-3M > 100 µM | NCI-H522 > 100 µM | NCI/ADR-RES > 100 µM | OVCAR-5 > 100 µM | RPMI-8226 > 100 µM | SK-MEL-2 > 100 µM | SK-OV-3 > 100 µM | SNB-19 > 100 µM | SW-620 > 100 µM | UO-31 > 100 µM

COc1cc(OC)c(C2c3cc4c(cc3OC(N3CCOCC3)C2C)OCO4)c(OC)c1 (stereo not drawn)
inactive: 786-0 40.7 µM | ACHN 12.3 µM | EKVX 80.5 µM | HCT-116 7.4 µM | HT-29 21.9 µM | LOX IMVI 23.2 µM | NCI-H522 > 100 µM | NCI/ADR-RES 34.8 µM | OVCAR-5 65.5 µM | RPMI-8226 20.2 µM | SK-MEL-2 > 100 µM | SK-MEL-5 47 µM | SNB-19 28.7 µM | SW-620 23.4 µM | UO-31 16.5 µM

COc1c(C(=O)/C(=N/Nc2ccc(C(=O)O)cc2)C(C)=O)c(O)cc2occc12
inactive: 786-0 > 100 µM | ACHN > 100 µM | CAKI-1 > 100 µM | EKVX > 100 µM | HCT-116 > 100 µM | HT-29 > 100 µM | LOX IMVI > 100 µM | Malme-3M 90.8 µM | NCI-H522 51.3 µM | NCI/ADR-RES > 100 µM | OVCAR-5 > 100 µM | RPMI-8226 > 100 µM | RXF 393 51.2 µM | SK-MEL-2 > 100 µM | SK-MEL-5 28.8 µM | SK-OV-3 > 100 µM | SNB-19 > 100 µM | SW-620 > 100 µM | UO-31 > 100 µM

CN(C)CCn1c2c(c3ccccc31)CCc1ccccc1-2
inactive: 786-0 14.8 µM | ACHN 16.3 µM | CAKI-1 14.9 µM | EKVX 17.4 µM | HCT-116 12 µM | HT-29 8.99 µM | LOX IMVI 17 µM | Malme-3M 16.1 µM | NCI-H522 15.9 µM | NCI/ADR-RES 15.6 µM | OVCAR-5 17.9 µM | RPMI-8226 6.49 µM | SK-MEL-2 15.3 µM | SK-MEL-5 6.1 µM | SK-OV-3 18.7 µM | SNB-19 16.3 µM | SW-620 18.8 µM | UO-31 13.6 µM

Cc1cc(C)nc(NS(=O)(=O)c2ccc(NNc3c4ccccc4nc4c(C(=O)Nc5ccc(S(=O)(=O)Nc6ncccn6)cc5)cccc34)cc2)n1
inactive: 786-0 39.3 µM | ACHN 23.3 µM | CAKI-1 36.3 µM | EKVX 19.5 µM | HCT-116 17.4 µM | HT-29 27.9 µM | LOX IMVI 20.7 µM | Malme-3M 26.7 µM | NCI-H522 18.7 µM | NCI/ADR-RES > 100 µM | OVCAR-5 16.4 µM | RPMI-8226 29.9 µM | RXF 393 35.3 µM | SK-MEL-2 16.2 µM | SK-MEL-5 21.2 µM | SK-OV-3 31.5 µM | SNB-19 34.6 µM | SW-620 21.6 µM | UO-31 30.2 µM

CCCCn1c(C)c(C)c2c1NN=C(C#N)S2(=O)=O
inactive: 786-0 > 100 µM | ACHN > 100 µM | EKVX > 100 µM | HCT-116 > 100 µM | HT-29 > 100 µM | LOX IMVI > 100 µM | Malme-3M > 100 µM | NCI-H522 64.7 µM | NCI/ADR-RES > 100 µM | OVCAR-5 > 100 µM | RPMI-8226 > 100 µM | SK-MEL-2 > 100 µM | SK-MEL-5 > 100 µM | SK-OV-3 > 100 µM | SNB-19 > 100 µM | SW-620 > 100 µM | UO-31 > 100 µM

CC(C)C(NCc1c(O)ccc2c(-c3ccccc3)cc(=O)oc12)C(=O)O (stereo not drawn)
inactive: 786-0 > 100 µM | ACHN > 100 µM | CAKI-1 > 100 µM | EKVX > 100 µM | HCT-116 > 100 µM | HT-29 > 100 µM | LOX IMVI > 100 µM | Malme-3M > 100 µM | NCI-H522 > 100 µM | NCI/ADR-RES > 100 µM | OVCAR-5 > 100 µM | RPMI-8226 > 100 µM | RXF 393 > 100 µM | SK-MEL-2 > 100 µM | SK-MEL-5 > 100 µM | SK-OV-3 > 100 µM | SNB-19 > 100 µM | SW-620 > 100 µM | UO-31 > 100 µM

CC(=O)Oc1ccc2c(C)cc(=O)oc2c1OC(C)=O
inactive: 786-0 37.2 µM | A498 37.7 µM | ACHN 29.1 µM | EKVX 48 µM | HCT-116 32.7 µM | HT-29 29.9 µM | LOX IMVI 22.2 µM | Malme-3M 17.6 µM | NCI/ADR-RES 24.2 µM | OVCAR-5 93.5 µM | RPMI-8226 24.5 µM | SK-MEL-2 > 100 µM | SK-MEL-5 37.8 µM | SK-OV-3 > 100 µM | SNB-19 41.3 µM | SW-620 30.7 µM | UO-31 26.5 µM
